The results in this text go back to ChEMBL document CHEMBL3627672, “Structure-activity relationship study of syringolin A as a potential anticancer agent” (Bioorg Med Chem Lett, 2015).

In one assay the test system is A-431. The experiment in a line: Antiproliferative activity against human A431 cells after 72 hrs by oxyluciferin luminescence assay. The settings on record: A-431, 72 h.
For a further assay, the system named is HCT-116. Nature of the assay: Antiproliferative activity against human HCT116 cells after 72 hrs by oxyluciferin luminescence assay. Conditions: HCT-116, 72 h.
The subject of the next assay is RKO. The experiment in a line: Antiproliferative activity against human RKO cells after 72 hrs by oxyluciferin luminescence assay.
The nature of assay [1]: Antiproliferative activity against human TOV21G cells after 72 hrs by oxyluciferin luminescence assay.
A further assay relates to CCRF-CEM. The experiment in a line: Antiproliferative activity against human CCRF-CEM cells after 72 hrs by oxyluciferin luminescence assay.
Assay [2] is described as follows: Antiproliferative activity against human RPMI8266 cells after 72 hrs by oxyluciferin luminescence assay. The settings on record: RPMI8266, 72 h.

Each structure is given as a SMILES string.

In general, IC50 refers to the concentration needed to halve the response being measured. A lower IC50 goes with inhibition by little substance. As to `CCCCCCCCCC(=O)N[C@@H](Cc1cccc2ccccc12)C(=O)N[C@H]1/C=C/CCNC(=O)/C=C/[C@H](C(C)C)NC1=O`, the IC50 with A-431 came out at 29.3 nM; in the assay on HCT-116, 31 nM; with RKO it was 31.3 nM; in assay [1] it was 13.2 nM; in the assay with CCRF-CEM, 1.5 nM; in assay [2], 7.4 nM.
Consider `CCCCCCCCCC(=O)N[C@@H](Cc1ccc2ccccc2c1)C(=O)N[C@H]1/C=C/CCNC(=O)/C=C/[C@H](C(C)C)NC1=O`, for which the IC50 with A-431 stood at 17.8 nM; in the assay on HCT-116, 18.5 nM; with RKO it was 15.2 nM; in assay [1], 14.1 nM; in the assay with CCRF-CEM, 5 nM; in assay [2], 10.9 nM.
Consider `CCCCCCCCCC(=O)N[C@@H](Cc1ccc(Br)cc1)C(=O)N[C@H]1/C=C/CCNC(=O)/C=C/[C@H](C(C)C)NC1=O`, for which the IC50 in the assay with A-431 came to 25.6 nM; in the assay on HCT-116, 33.4 nM; with RKO, 33.7 nM; in assay [1], 24.1 nM; in the assay with CCRF-CEM, 18.4 nM; in assay [2] it was 28.3 nM.
Regarding `CCCCCCCCCC(=O)N[C@@H](Cc1ccccc1C)C(=O)N[C@H]1/C=C/CCNC(=O)/C=C/[C@H](C(C)C)NC1=O`, the IC50 is 8.9 nM in the assay with A-431; 12 nM with HCT-116; 9.5 nM with RKO; 6.2 nM in assay [1]; 3.6 nM with CCRF-CEM; 8.8 nM in assay [2].
As for `CCCCCCCCCC(=O)N[C@@H](Cc1cccc(C)c1)C(=O)N[C@H]1/C=C/CCNC(=O)/C=C/[C@H](C(C)C)NC1=O`, the half-maximal inhibitory concentration (IC50) amounted to 6.9 nM in the assay with A-431; 7 nM in the assay on HCT-116; 7.3 nM in the assay on RKO; 6.2 nM in assay [1]; 3.5 nM in the assay on CCRF-CEM; 8.4 nM in assay [2].
Turning to `CCCCCCCCCC(=O)N[C@@H](Cc1ccc(C)cc1)C(=O)N[C@H]1/C=C/CCNC(=O)/C=C/[C@H](C(C)C)NC1=O`, the IC50 in the assay with A-431 was 18.9 nM; in the assay on HCT-116, 28.1 nM; in the assay with RKO, 15.5 nM; in assay [1] it was 9.1 nM; in the assay with CCRF-CEM it was 1.9 nM; in assay [2], 4.8 nM.
Consider `CCCCCCCCCC(=O)N[C@@H](Cc1ccc(O)cc1)C(=O)N[C@H]1/C=C/CCNC(=O)/C=C/[C@H](C(C)C)NC1=O`, for which the IC50 in the assay on A-431 is 134 nM; in the assay with HCT-116 it was 68.5 nM; in the assay on RKO, 43.7 nM; in assay [1], 151 nM; in the assay on CCRF-CEM it was 32.3 nM; in assay [2], 28.3 nM.
For the compound `CCCCCCCCCC(=O)N[C@@H](Cc1ccccn1)C(=O)N[C@H]1/C=C/CCNC(=O)/C=C/[C@H](C(C)C)NC1=O`, the IC50 with A-431 came out at 23.5 nM; with HCT-116, 19.2 nM; in the assay with RKO, 18.2 nM; in assay [1], 10.7 nM; in the assay with CCRF-CEM, 8.6 nM; in assay [2], 15 nM.
Regarding `CCCCCCCCCC(=O)N[C@@H](Cc1cccnc1)C(=O)N[C@H]1/C=C/CCNC(=O)/C=C/[C@H](C(C)C)NC1=O`, the IC50 in the assay with A-431 came to 24.4 nM; with HCT-116, 29.4 nM; with RKO, 17.1 nM; in assay [1], 5.1 nM; in the assay on CCRF-CEM, 27.5 nM; in assay [2] it was 15.5 nM.
Take `CCCCCCCCCC(=O)N[C@@H](Cc1ccncc1)C(=O)N[C@H]1/C=C/CCNC(=O)/C=C/[C@H](C(C)C)NC1=O`: the IC50 came to 50.3 nM in the assay on A-431; 56.3 nM in the assay with HCT-116; 47.3 nM in the assay with RKO; 14.5 nM in assay [1]; 35.7 nM in the assay with CCRF-CEM; 72.6 nM in assay [2].
With `CCCCCCCCCC(=O)N[C@@H](Cc1ccc(-c2ccccc2)cc1)C(=O)N[C@H]1/C=C/CCNC(=O)/C=C/[C@H](C(C)C)NC1=O`, the IC50 in the assay on A-431 amounted to 21.9 nM; in the assay with HCT-116, 27.1 nM; with RKO, 30.4 nM; in assay [1] it was 16.8 nM; with CCRF-CEM, 12.3 nM; in assay [2], 19.7 nM.
